Experiments:
E. coli [1] = experiment: disk diffusion test of E. coli against gentamicin, laboratory KS, SRGA methodology; type: cell-based, Escherichia coli; conditions: 10 μg gentamicin disk
Protocol: (§1) Different types of susceptibility tests can be used to test the antimicrobic susceptibility of a microorganism. One type of susceptibility test is the disk diffusion test. This is a standardized test, in which a plate containing a growth medium in agar gel is inoculated with a microbial isolate and one or more disks impregnated with fixed concentrations of antibiotics are placed thereon. After appropriate incubation, the diameter of zones of inhibition around the disks (if present) are registered in order to determine the sensitivity of the inoculated microorganism to the particular antimicrobial agent impregnated in each disk.
(§2) In this example histograms of zone diameter values from disk test results for E. coli tested against the antibiotic gentamicin were analyzed according to the principle of normalized resistance interpretation. One laboratory (KS) used the SRGA (Swedish Reference Group for Antibiotics) methodology and a disk content of 10 μg gentamicin, whereas the other laboratory on a different continent (AR, a clinical microbiology laboratory in South America) used the NCCLS (National Committee for Clinical Laboratory Standards) standardization and a 5 μg gentamicin disk.
(§3) The different methods used result in different positionings of the major, susceptible populations of strains (FIG. 5). […]

E. coli [2] = experiment: disk diffusion test of E. coli against gentamicin, laboratory AR (South America), NCCLS standardization; type: cell-based, Escherichia coli; conditions: 5 μg gentamicin disk
Protocol: as §1, §2, §3

[3] = system: Escherichia coli isolates; experiment: disk diffusion test of Escherichia coli clinical isolates against norfloxacin, Karolinska hospital, zone diameter histograms 1988 and 1999; type: cell-based
Protocol: as §1
The microbial species to be tested can be any cultivable microorganism, such as a bacterial species or a fungal species. In order to obtain species-related and laboratory-related interpretive breakpoints, a histogram of for example clinical isolates can be used. The method is especially suitable for analyzing inhibition zone diameters from disk diffusion tests with clinical isolates from a bacterial species, which may contain resistant strains against an antibiotic. Thus, no outliers are excluded. The number of isolates or percent isolates are plotted on the y-axis and the growth inhibition zone diameter values from paper disks impregnated with the antibiotic are plotted on the x-axis. When the method of O'Brien et al. (J. Am. Med. Assoc. 210:84, 1969) is used, histograms are obtained with percent isolates on the y-axis and zone diameter values from 6 mm (paper disk diameter) to 60 mm on the x-axis. However, the inventive method is equally well adapted for a microdilution tests, the concentration data being minimal inhibitory concentrations. All data can be computerized.
It can be seen that the zone diameter values for these clinical isolates cluster around 29-30 mm with a distribution of ±8 mm.
The results from 1988 in FIG. 1 were compared with similar results eleven years later (FIG. 2). In this histogram a number of isolates now appear, which have inhibition zones all the way down to no zone, the size of the 6 mm disk. The comparison was accomplished by means of computer analysis according to the inventive method for calibrating antimicrobic susceptibility testings of microorganisms.
First, the slope downwards was tracked and the shift to decreasing values at the peak position identified by comparing sliding means (each based on two zone diameter figures). Then, the percentages of the isolates of the upper half of the population were determined and converted to probit values. A regression using the least squares method was then performed and the theoretical percentages for the whole population calculated.
In this calculation, it is assumed that 3 SD below the mean includes 99.86 percent of the normally susceptible strains in this group. A suitable limit for susceptibility interpretation and comparative analysis of antimicrobic resistance could then be defined as three times the standard deviation below the mean value.

| Compound | R-limit for resistance (normalized zone breakpoint) (E. coli [1]) | R-limit for resistance (normalized zone breakpoint) (E. coli [2]) | mean value of inhibition zone diameters, customary statistical procedure ([3]; 1988, 3756 isolates, disk 10 μg, SD 3.22) | mean of normalized Gaussian distribution of theoretical normal population ([3]; 1988, 3756 isolates, disk 10 μg, SD 3.25) | zone diameter values of clinical isolates cluster around ([3]; 1988 histogram, disk content 10 μg, distribution ±8 mm) | limit for resistance (zone breakpoint, 3 SD below normalized mean) ([3]; 1988 population) | percent resistance of isolates ([3]; 1988 population, limit 19 mm) | limit for resistance (zone breakpoint, 3 SD below normalized mean) ([3]; 1999 population) | percent resistance of isolates ([3]; 1999 population, limit 20 mm) | mean of normalized Gaussian distribution of theoretical normal population ([3]; eleven years later (1999), 5944 isolates, SD 3.22) | mean value of inhibition zone diameters, customary statistical procedure ([3]; eleven years later (1999), all 5944 isolates, SD 7.39) |
| --- | --- | --- | --- | --- | --- | --- | --- | --- | --- | --- | --- |
| gentamicin | < 21 mm | < 17 mm |  |  |  |  |  |  |  |  |  |
| CCn1cc(C(=O)O)c(=O)c2cc(F)c(N3CCNCC3)cc21 [norfloxacin] |  |  | 29.16 mm | 29.27 mm | 29-30 mm | 19 mm | 0.56% | 20 mm | 10.8% | 30.49 mm | 28.24 mm |
